Patent US5750540A, “1,4-di-substituted piperidine derivatives” (Banyu Pharmaceutical Co., Ltd., priority 1995, dated 1998)

Key:
muscarinic M2 receptors = molecular target: T1, muscarinic M2 receptors (Rattus norvegicus, UniProt P10980); assay: Bradycardia in rats (acetylcholine-induced); assay type: in vivo; conditions: iv, 5 min, i.v., 5 minutes after administration, 50% inhibition of acetylcholine-induced bradycardia, read-out: Bradycardia ID50
T1 construct: a membrane specimen from the heart was used as the membrane specimen; from tissue; host or cells: rat heart membranes (SD rat)
T1 sequence (P10980 1-466): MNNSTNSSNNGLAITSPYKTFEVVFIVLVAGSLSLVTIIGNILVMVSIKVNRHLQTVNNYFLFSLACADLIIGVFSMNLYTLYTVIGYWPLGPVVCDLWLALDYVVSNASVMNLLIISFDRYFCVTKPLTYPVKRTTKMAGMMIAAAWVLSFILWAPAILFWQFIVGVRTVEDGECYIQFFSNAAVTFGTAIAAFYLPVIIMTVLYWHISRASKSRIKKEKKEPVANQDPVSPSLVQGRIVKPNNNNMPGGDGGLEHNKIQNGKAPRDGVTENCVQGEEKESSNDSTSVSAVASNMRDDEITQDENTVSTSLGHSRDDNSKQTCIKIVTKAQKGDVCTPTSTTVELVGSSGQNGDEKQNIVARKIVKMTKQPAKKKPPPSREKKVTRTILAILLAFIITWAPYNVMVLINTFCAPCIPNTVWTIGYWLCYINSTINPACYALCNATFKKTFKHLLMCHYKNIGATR
Experimental: 6) Tests for bradycardia in rats
Eight- to eleven-weeks-old male rats of the Sprague-Dawley strain, weighing 300-400 g, were anesthetized with urethane (750 mg/kg, i.p.) and α-chloralose (37.5 mg/kg, i.p.). A bronchus was intubated, and the right jugular vein was cannulated for drug administration. […] To evoke bradycardia, acetylcholine (50 μg/kg, i.v.) was administered to the animals. Mean values for the acetylcholine-induced decrease in heart rate as measured five minutes before (control) and five minutes after test compound administration were calculated and the results were expressed as percentages relative to the control response. The ID50 value was calculated from the dose-response curve of the test compound using probit analysis and defined as the drug dose that inhibited the acetylcholine-induced bradycardia in the control group by 50%.

[1] = molecular target: T2, intestinal M3 receptors (ileum) (Rattus norvegicus, UniProt P08483); assay: Antagonism against intestinal M3 receptors in an isolated rat ileum; conditions: in vitro, agonist carbachol
T2 construct: the ileum was excised; from tissue; host or cells: isolated rat ileum
Experimental: 4) Tests for antagonism against the intestinal M3 receptors in an isolated rat ileum
A male SD strain rat (weighing 300-500 g) was killed by exsanguination, and the ileum was excised. This ileum was cut to make ileum preparations having a length of 2 cm. A preparation was suspended in a Magnus tube filled with 20 ml of Krebs-Henseleit nutrient solution (gassed with 95% O2 -5% CO2 and kept at 32° C.) under a load of 0.5 g. The tension of the preparation was recorded isotonically. After being equilibrated for an hour, the preparation was made to contract twice by treatment with 10^-4 M carbachol, and the second contraction induced by carbachol was used as the reference contraction. After the preparation was washed with fresh solution to make a return to the base line, a test compound was administered thereto (or no treatment was made). Ten minutes later, carbachol (10^-8 to 10^-3 M) was cumulatively administered from the lowermost concentration in three-fold increasing doses to obtain a dose-response curve. The dose-response curve was constructed by expressing responses as percentages based on the reference contraction of the preparation. The antagonistic potency (KB value) of the test compound was determined from the degree of shift of the dose-response curve obtained by treatment with the test compound.

bladder M3 receptors = molecular target: T3, bladder M3 receptors (Rattus norvegicus, UniProt P08483); assay: Antagonism against bladder M3 receptors in an isolated rat bladder; conditions: in vitro, agonist carbachol
T3 construct: the bladder was excised; from tissue; host or cells: isolated rat bladder
Experimental: 5) Tests for antagonism against the bladder M3 receptors in an isolated rat bladder
These tests were performed according to an ordinary method. A male SD strain rat (weighing 200-400 g) was killed by exsanguination, and the bladder was excised. This bladder axially cut into eight parts to make bladder preparations. A preparation was suspended in a Magnus tube filled with 5 ml of Krebs-Henseleit nutrient solution (gassed with 95% O2 -5% CO2 and kept at 32° C.) with an initial tension of 0.5 g. The tension of the preparation was recorded isometrically. After being equilibrated for an hour, the preparation was made to contract twice by treatment with 10^-4 M carbachol, and the second contraction induced by carbachol was used as the reference contraction. After the preparation was washed with fresh solution to make a return to the base line, a test compound was administered thereto (or no treatment was made). Ten minutes later, carbachol (10^-8 to 10^-3 M) was cumulatively administered from the lower-most concentration in three-fold increasing doses to obtain a dose-response curve. The dose-response curve was constructed by expressing responses as percentages based on the reference contraction of the preparation. The antagonistic potency (KB value) of the test compound was determined from the degree of shift of the dose-response curve obtained by treatment with the test compound.

T3 sequence (P08483 whole entry): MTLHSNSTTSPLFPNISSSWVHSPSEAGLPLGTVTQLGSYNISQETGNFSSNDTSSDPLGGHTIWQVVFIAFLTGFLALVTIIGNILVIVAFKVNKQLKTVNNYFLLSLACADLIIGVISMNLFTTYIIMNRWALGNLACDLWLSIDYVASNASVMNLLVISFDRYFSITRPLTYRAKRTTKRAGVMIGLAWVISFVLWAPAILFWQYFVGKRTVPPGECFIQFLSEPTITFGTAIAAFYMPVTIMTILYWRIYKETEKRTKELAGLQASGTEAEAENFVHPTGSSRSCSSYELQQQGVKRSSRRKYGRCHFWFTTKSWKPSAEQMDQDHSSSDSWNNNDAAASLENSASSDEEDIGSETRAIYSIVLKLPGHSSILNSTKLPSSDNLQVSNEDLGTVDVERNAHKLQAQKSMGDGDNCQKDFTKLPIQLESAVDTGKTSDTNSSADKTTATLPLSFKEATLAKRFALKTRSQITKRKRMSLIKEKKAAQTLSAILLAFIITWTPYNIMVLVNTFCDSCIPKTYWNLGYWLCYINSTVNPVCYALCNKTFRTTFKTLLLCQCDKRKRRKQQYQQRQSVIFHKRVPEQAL
T2 sequence (P08483 whole entry): as above

CC(C)=CCCN1CCC(NC(=O)C(O)(c2ccccc2)C2CCC2)CC1 (stereo not drawn) [Example 1, N-[1-(4-methyl-3-pentenyl)-piperidin-4-yl]-2-cyclobutyl-2-hydroxy-2-phenylacetamide]
ED50 (muscarinic M2 receptors): > 3 mg/kg | Kb [1]: 0.024 µM | Kb (bladder M3 receptors): 0.031 µM
